Read-outs that look alike come from different tables or passages of the source.
Columns and labels:
Experiment in all cases: selectivity profiling in a panel of 340 wild-type kinases (Reaction Biology Europe)
Assay type in all cases: binding
[1] = target: T1, 340 wild-type kinases (Homo sapiens, UniProt P06239)
T1 construct: purchased Reaction Biology Europe

[2] = target: T2, 340 wild-type kinases (Homo sapiens, UniProt Q02750)
T2 construct: purchased Reaction Biology Europe

[3] = target: T3, 340 wild-type kinases (Homo sapiens, UniProt Q13557)
T3 construct: purchased Reaction Biology Europe

[4] = target: T4, 340 wild-type kinases (Homo sapiens, UniProt Q9UL54)
T4 construct: purchased Reaction Biology Europe
T4 sequence (Q9UL54 1-1235): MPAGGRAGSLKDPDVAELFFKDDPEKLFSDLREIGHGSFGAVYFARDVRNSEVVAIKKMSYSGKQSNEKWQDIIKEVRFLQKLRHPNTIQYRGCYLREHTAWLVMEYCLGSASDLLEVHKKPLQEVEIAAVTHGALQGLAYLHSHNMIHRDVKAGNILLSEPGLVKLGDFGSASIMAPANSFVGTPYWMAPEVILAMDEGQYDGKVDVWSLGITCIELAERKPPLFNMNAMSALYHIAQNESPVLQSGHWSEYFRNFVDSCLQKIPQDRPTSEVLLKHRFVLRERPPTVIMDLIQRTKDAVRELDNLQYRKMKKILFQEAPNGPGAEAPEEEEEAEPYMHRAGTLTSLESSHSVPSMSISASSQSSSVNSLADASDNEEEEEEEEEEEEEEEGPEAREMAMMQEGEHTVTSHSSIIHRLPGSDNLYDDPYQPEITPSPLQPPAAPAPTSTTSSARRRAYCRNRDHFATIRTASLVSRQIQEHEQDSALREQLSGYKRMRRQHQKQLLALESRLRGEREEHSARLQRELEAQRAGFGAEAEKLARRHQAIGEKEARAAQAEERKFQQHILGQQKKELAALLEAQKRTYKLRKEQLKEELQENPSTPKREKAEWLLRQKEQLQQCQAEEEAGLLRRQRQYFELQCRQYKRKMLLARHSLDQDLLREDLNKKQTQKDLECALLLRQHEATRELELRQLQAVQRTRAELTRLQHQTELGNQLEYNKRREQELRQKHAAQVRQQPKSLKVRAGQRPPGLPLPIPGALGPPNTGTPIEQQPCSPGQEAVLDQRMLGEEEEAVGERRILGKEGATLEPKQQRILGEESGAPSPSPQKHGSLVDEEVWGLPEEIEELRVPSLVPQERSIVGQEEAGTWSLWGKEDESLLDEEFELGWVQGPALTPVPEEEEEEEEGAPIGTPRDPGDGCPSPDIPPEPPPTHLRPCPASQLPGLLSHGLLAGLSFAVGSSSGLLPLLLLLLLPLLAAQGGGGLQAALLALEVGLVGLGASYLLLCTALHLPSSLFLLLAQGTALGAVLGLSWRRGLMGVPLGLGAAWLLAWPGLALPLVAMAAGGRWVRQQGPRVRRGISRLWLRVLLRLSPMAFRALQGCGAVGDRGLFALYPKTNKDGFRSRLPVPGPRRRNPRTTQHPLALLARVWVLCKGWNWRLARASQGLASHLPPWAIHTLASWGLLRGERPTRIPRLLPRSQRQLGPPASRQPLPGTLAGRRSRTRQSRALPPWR

[5] = target: T5, 340 wild-type kinases (Homo sapiens, UniProt P27448)
T5 construct: purchased Reaction Biology Europe

[6] = target: T6, 340 wild-type kinases (Homo sapiens, UniProt P36888)
T6 construct: purchased Reaction Biology Europe
T6 sequence (P36888 27-993): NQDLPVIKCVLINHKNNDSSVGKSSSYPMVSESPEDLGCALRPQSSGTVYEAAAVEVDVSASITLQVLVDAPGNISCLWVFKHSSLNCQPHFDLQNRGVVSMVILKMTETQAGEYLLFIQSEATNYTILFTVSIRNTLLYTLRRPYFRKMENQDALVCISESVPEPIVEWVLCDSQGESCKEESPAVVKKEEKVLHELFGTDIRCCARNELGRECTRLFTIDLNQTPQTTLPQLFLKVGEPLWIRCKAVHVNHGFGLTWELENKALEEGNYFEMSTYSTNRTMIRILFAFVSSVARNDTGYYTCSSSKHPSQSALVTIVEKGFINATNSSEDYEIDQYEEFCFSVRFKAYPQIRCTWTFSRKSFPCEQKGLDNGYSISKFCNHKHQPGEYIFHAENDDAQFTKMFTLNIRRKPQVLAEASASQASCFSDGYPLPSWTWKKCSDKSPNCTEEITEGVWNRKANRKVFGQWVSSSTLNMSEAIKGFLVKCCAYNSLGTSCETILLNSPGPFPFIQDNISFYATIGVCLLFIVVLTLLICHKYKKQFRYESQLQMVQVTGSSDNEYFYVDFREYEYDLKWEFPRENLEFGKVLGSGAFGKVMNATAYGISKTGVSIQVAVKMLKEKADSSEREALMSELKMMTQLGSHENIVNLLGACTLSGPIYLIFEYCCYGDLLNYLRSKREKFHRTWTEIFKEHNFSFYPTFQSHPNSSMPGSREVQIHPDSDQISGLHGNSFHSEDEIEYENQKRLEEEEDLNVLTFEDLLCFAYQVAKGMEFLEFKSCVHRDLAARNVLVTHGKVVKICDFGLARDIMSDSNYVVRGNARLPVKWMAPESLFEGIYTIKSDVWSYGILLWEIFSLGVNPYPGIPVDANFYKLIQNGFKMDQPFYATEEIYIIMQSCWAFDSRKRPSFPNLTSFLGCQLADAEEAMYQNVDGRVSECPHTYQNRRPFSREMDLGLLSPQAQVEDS

[7] = target: T7, 340 wild-type kinases (Homo sapiens, UniProt O43353)
T7 construct: purchased Reaction Biology Europe
T7 sequence (O43353 whole entry): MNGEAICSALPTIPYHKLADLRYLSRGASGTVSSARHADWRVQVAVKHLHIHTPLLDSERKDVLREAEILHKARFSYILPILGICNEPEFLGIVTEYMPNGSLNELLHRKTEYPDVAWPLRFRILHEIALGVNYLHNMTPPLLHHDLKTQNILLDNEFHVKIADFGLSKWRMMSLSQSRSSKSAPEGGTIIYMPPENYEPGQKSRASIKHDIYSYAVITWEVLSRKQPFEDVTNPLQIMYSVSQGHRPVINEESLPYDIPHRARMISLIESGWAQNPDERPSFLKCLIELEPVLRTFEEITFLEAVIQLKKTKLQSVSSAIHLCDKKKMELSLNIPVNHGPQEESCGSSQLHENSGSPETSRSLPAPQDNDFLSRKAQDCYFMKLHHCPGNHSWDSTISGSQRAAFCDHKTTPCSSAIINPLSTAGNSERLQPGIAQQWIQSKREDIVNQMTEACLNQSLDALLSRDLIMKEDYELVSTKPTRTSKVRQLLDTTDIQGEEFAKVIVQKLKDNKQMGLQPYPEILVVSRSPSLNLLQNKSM

T5 sequence (P27448 whole entry): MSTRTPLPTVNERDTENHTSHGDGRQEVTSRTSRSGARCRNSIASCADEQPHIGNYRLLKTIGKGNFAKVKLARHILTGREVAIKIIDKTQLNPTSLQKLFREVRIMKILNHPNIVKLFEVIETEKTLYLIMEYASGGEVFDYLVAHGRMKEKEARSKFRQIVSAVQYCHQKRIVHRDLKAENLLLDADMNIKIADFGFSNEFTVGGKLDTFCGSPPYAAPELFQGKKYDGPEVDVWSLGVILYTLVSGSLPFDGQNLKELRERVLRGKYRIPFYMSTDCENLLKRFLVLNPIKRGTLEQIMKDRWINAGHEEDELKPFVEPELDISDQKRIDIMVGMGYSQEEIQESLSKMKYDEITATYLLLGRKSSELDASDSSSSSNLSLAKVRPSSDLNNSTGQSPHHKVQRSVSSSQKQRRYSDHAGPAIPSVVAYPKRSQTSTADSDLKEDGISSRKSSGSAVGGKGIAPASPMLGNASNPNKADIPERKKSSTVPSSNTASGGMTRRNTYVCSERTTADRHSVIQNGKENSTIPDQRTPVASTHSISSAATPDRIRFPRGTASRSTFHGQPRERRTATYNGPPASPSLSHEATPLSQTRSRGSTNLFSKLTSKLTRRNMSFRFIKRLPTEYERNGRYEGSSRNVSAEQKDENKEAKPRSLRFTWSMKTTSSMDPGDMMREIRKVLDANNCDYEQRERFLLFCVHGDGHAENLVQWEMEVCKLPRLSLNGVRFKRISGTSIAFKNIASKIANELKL
T3 sequence (Q13557 whole entry): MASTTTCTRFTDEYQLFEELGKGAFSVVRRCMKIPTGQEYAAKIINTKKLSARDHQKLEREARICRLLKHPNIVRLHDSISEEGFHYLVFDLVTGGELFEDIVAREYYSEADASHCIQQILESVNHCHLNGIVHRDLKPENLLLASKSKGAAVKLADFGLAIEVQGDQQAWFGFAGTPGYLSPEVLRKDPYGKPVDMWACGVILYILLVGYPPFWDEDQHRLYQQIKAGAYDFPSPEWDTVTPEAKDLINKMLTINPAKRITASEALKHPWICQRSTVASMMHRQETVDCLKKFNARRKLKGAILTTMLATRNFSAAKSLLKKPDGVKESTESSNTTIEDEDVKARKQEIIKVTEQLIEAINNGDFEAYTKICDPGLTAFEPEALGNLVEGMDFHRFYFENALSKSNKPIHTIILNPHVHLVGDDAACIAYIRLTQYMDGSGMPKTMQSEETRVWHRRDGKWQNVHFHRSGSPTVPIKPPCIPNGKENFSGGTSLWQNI
T1 sequence (P06239 whole entry): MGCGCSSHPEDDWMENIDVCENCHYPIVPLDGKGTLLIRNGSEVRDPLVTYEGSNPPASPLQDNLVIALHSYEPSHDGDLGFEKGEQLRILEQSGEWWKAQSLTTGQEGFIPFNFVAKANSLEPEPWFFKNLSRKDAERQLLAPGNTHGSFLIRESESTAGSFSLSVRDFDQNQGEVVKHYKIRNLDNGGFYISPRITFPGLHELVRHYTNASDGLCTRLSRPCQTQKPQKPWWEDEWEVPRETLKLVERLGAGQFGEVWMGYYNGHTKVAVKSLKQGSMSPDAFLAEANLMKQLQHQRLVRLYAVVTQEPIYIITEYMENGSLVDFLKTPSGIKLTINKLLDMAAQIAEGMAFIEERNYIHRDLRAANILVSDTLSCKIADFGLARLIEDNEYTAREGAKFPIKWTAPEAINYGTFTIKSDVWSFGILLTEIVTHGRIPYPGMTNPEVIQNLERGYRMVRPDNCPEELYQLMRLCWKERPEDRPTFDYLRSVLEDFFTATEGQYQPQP
T2 sequence (Q02750 whole entry): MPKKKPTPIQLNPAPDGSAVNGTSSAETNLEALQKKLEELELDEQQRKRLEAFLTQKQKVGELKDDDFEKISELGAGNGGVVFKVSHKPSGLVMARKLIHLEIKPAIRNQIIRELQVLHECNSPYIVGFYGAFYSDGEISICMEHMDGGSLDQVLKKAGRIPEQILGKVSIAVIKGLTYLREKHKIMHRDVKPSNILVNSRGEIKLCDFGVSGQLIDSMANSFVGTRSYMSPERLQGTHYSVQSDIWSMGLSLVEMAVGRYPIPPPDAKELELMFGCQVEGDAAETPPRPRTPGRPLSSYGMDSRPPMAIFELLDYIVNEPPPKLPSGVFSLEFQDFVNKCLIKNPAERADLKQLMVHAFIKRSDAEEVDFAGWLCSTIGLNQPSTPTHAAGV

Q: `CNC(=O)c1ccc2c(c1)C(=O)c1ccc(Nc3ccc(F)c(NC(=O)C4CC4)c3)cc1CC2` [Compound 2015] was tested. Which remaining activity at 0.2 µM ([1]; 0.2 µM 2015, read-out: LCK residual activity) did it give?
A: The remaining activity at 0.2 µM was 104%.

Q: What about the remaining activity at 1 µM ([1]; 1 µM 2015, read-out: LCK residual activity) of the same compound?
A: Its remaining activity at 1 µM is 95.6%.

Q: What about the remaining activity at 0.2 µM ([1]; LCK, 0.2 µM, read-out: residual activity) of the same compound?
A: Its remaining activity at 0.2 µM is 104%.

Q: And the remaining activity at 1 µM ([1]; LCK, 1 µM, read-out: residual activity)?
A: The remaining activity at 1 µM was 95.6%.

Q: What about the remaining activity at 0.2 µM ([2]; 0.2 µM 2015, read-out: MEK1 residual activity) of the same compound?
A: The remaining activity at 0.2 µM was 105%.

Q: What about the remaining activity at 1 µM ([2]; 1 µM 2015, read-out: MEK1 residual activity) of the same compound?
A: Its remaining activity at 1 µM is 99.8%.

Q: And the remaining activity at 0.2 µM ([2]; MEK1, 0.2 µM, read-out: residual activity)?
A: Its remaining activity at 0.2 µM is 105%.

Q: What about the remaining activity at 1 µM ([2]; MEK1, 1 µM, read-out: residual activity) of the same compound?
A: Its remaining activity at 1 µM is 99.8%.

Q: What about the remaining activity at 0.2 µM ([3]; 0.2 µM 2015, read-out: CAMK2D residual activity) of the same compound?
A: The remaining activity at 0.2 µM was 98.1%.

Q: And the remaining activity at 1 µM ([3]; 1 µM 2015, read-out: CAMK2D residual activity)?
A: The remaining activity at 1 µM was 95.7%.

Q: What about the remaining activity at 0.2 µM ([3]; CAMK2D, 0.2 µM, read-out: residual activity) of the same compound?
A: The remaining activity at 0.2 µM was 98.1%.

Q: And the remaining activity at 1 µM ([3]; CAMK2D, 1 µM, read-out: residual activity)?
A: Its remaining activity at 1 µM is 95.7%.

Q: And the remaining activity at 0.2 µM ([4]; 0.2 µM 2015, read-out: TAOK2 residual activity)?
A: The remaining activity at 0.2 µM was 102%.

Q: What about the remaining activity at 1 µM ([4]; 1 µM 2015, read-out: TAOK2 residual activity) of the same compound?
A: The remaining activity at 1 µM was 103%.

Q: What about the remaining activity at 0.2 µM ([4]; TAOK2, 0.2 µM, read-out: residual activity) of the same compound?
A: The remaining activity at 0.2 µM was 102%.

Q: And the remaining activity at 1 µM ([4]; TAOK2, 1 µM, read-out: residual activity)?
A: Its remaining activity at 1 µM is 103%.

Q: What about the remaining activity at 0.2 µM ([5]; 0.2 µM 2015, read-out: MARK3 residual activity) of the same compound?
A: Its remaining activity at 0.2 µM is 117%.

Q: And the remaining activity at 1 µM ([5]; 1 µM 2015, read-out: MARK3 residual activity)?
A: Its remaining activity at 1 µM is 100%.

Q: What about the remaining activity at 0.2 µM ([5]; MARK3, 0.2 µM, read-out: residual activity) of the same compound?
A: The remaining activity at 0.2 µM was 117%.

Q: And the remaining activity at 1 µM ([5]; MARK3, 1 µM, read-out: residual activity)?
A: Its remaining activity at 1 µM is 100%.

Q: And the remaining activity at 0.2 µM ([6]; 0.2 µM 2015, read-out: FLT3 residual activity)?
A: The remaining activity at 0.2 µM was 84.5%.

Q: And the remaining activity at 1 µM ([6]; 1 µM 2015, read-out: FLT3 residual activity)?
A: Its remaining activity at 1 µM is 80%.

Q: And the remaining activity at 0.2 µM ([6]; FLT3, 0.2 µM, read-out: residual activity)?
A: The remaining activity at 0.2 µM was 84.5%.

Q: And the remaining activity at 1 µM ([6]; FLT3, 1 µM, read-out: residual activity)?
A: Its remaining activity at 1 µM is 80%.

Q: And the remaining activity at 0.2 µM ([7]; 0.2 µM 2015, read-out: RIPK2 residual activity)?
A: The remaining activity at 0.2 µM was 73.7%.

Q: And the remaining activity at 1 µM ([7]; 1 µM 2015, read-out: RIPK2 residual activity)?
A: The remaining activity at 1 µM was 120%.

Q: What about the remaining activity at 0.2 µM ([7]; RIPK2, 0.2 µM, read-out: residual activity) of the same compound?
A: The remaining activity at 0.2 µM was 73.7%.

Q: And the remaining activity at 1 µM ([7]; RIPK2, 1 µM, read-out: residual activity)?
A: The remaining activity at 1 µM was 120%.
